Data reported in patent US20250092056A1, “URACIL DERIVATIVES HAVING VIRUS REPLICATION INHIBITORY ACTIVITY AND PHARMACEUTICAL COMPOSITION COMPRISING THE SAME” (Shionogi & Co., Ltd., priority 2022, published 2025).
Read-outs that look alike come from different tables or passages of the source.

What was measured:
SARS-CoV-2 = assay: Cytopathic effect (CPE) suppression effect confirmation test using HEK293T/ACE2-TMPRSS2 cells; type: cell-based; conditions: Severe acute respiratory syndrome coronavirus 2, HEK-293T
[1] = target: Recombinant SARS-CoV-2 3CL Protease (Severe acute respiratory syndrome coronavirus 2 (2019-nCoV) (SARS-CoV-2), UniProt P0DTD1); assay: biochemical; type: biochemical; conditions: 50% SARS-CoV-2 3CL protease inhibitory concentration; read-out: IC50
[2] = 50% SARS-CoV-2 infected cell death inhibitory concentration, HEK293T/ACE2-TMPRSS2 cells, read-out: EC50
[3] = 72 h, read-out: EC50 (50% SARS-CoV-2 infected cell death inhibitory concentration), class, HEK293T/ACE2-TMPRSS2 cells, CPE suppression, CellTiter-Glo 2.0 after 3 days culture
[4] = 72 h, HEK293T/ACE2-TMPRSS2 cells, CPE suppression, CellTiter-Glo 2.0 after 3 days culture, read-out: EC50 (50% SARS-CoV-2 infected cell death inhibitory concentration), class
[5] = 72 h, read-out: EC50 (50% SARS-CoV-2 infected cell death inhibitory concentration), HEK293T/ACE2-TMPRSS2 cells, CPE suppression, CellTiter-Glo 2.0 after 3 days culture

Row | Structure (SMILES) | EC50 (SARS-CoV-2; [2]) | IC50 [1] | EC50 (SARS-CoV-2; [3]) | EC50 (SARS-CoV-2; [4]) | EC50 (SARS-CoV-2; [5])
1 | C[C@](O)(CCc1c(-c2ccc(F)c(Cl)c2)c(=O)n(-c2cncc(Cl)c2)c(=O)n1CC#N)C(F)F (single isomer, unassigned) [Compound I-392] | < 100 nM | < 10 nM |  |  | 
2 | N#CCn1c(N2CC(O)(c3nccs3)C2)c(-c2ccc(F)c(Cl)c2)c(=O)n(-c2cncc(Cl)c2)c1=O [Compound I-256] | < 100 nM | < 10 nM |  |  | 
3 | N#CCn1c(N2CC(C(F)(F)F)C2)c(-c2cc(F)c(F)c(C#N)c2)c(=O)n(-c2cncc(Cl)c2)c1=O [Compound I-368] | < 100 nM | < 10 nM |  |  | 
4 | N#CCn1c(N2CC3(CCOC3)C2)c(CC2CC(F)(F)C2)c(=O)n(-c2cncc(Cl)c2)c1=O [Compound I-364] | 100 to 1000 nM | > 100 nM |  |  | 
5 | Cc1cncc(-n2c(=O)c(-c3ccc(F)c(Cl)c3)c(-c3nc4ccccc4s3)n(CC#N)c2=O)c1 [Compound I-120] |  | < 10 nM | < 100 nM |  | 
6 | N#CCn1c(N2CC3(CCOC3)C2)c(Cc2cc(F)c(F)c(F)c2)c(=O)n(-c2cncc(Cl)c2)c1=O [Compound I-059] |  | < 10 nM | < 100 nM |  | 
7 | N#CCn1c(N2Cc3ccccc3C2)c(Cc2cc(F)c(F)c(F)c2)c(=O)n(C2CCNC(=O)C2)c1=O (racemic) [Compound I-155] |  | > 100 nM | 1000 to 5000 nM |  | 
8 | N#CCn1c(N2CCC(F)(F)CC2)c(-c2cccc(C#N)c2)c(=O)n(-c2cncc(Cl)c2)c1=O [Compound I-169] |  | 10 to 100 nM |  | < 100 nM | 
9 | N#CCn1c(N2CC3(C=C(F)C3)C2)c(-c2ccc(F)c(Cl)c2)c(=O)n(-c2cncc(Cl)c2)c1=O [Compound I-362] | < 100 nM | < 10 nM |  |  | 
10 | CC(C)(O)CCc1c(-c2ccc(F)c(Cl)c2)c(=O)n(-c2cncc(Cl)c2)c(=O)n1CC#N [Compound I-306] | < 100 nM | < 10 nM |  |  | 
11 | C[C@@](O)(CCc1c(-c2ccc(F)c(Cl)c2)c(=O)n(-c2cncc(C#N)c2)c(=O)n1CC#N)C(F)F (single isomer, unassigned) [Compound I-430] | < 100 nM | < 10 nM |  |  | 
12 | N#CCn1c(N2CC(OC(F)(F)F)C2)c(-c2ccc(F)c(Cl)c2)c(=O)n(-c2cncc(C(F)(F)F)n2)c1=O [Compound I-334] | < 100 nM | < 10 nM |  |  | 
13 | N#CCn1c(N2C[C@@H]3C[C@H]2CO3)c(-c2ccc(F)c(C(F)F)c2)c(=O)n(-c2cncc(Cl)c2)c1=O [Compound I-343] | < 100 nM | < 10 nM |  |  | 
14 | N#CCn1c(N2CC3(C2)CC(F)(F)C3)c(-c2ccc(F)c(F)c2)c(=O)n(-c2cncc(Cl)c2)c1=O [Compound I-315] | < 100 nM | < 10 nM |  |  | 
15 | N#CCn1c(N2CC3(CCOC3)C2)c(-c2ccc(F)c(Cl)c2)c(=O)n(-c2cnc3cc(F)ccn23)c1=O [Compound I-147] |  | < 10 nM | < 100 nM |  | 
16 | N#CCn1c(N2CC3(CCOC3)C2)c(Cc2cc(F)c(F)c(F)c2)c(=O)n(-c2cnn3ccccc23)c1=O [Compound I-128] |  | > 100 nM | 100 to 1000 nM |  | 
17 | CC1(C)CCN(c2c(-c3ccc(F)c(Cl)c3)c(=O)n(-c3cc4n(c(=O)c3)CCC4)c(=O)n2CC#N)CC1 [Compound I-166] |  | > 100 nM | 1000 to 5000 nM |  | 
18 | N#CCn1c(CCC(F)(F)F)c(-c2ccc(F)c(Cl)c2)c(=O)n(-c2cncc(Cl)c2)c1=O [Compound I-324] | < 100 nM | < 10 nM |  |  | 
19 | N#CCn1c(N2CCC(C(F)F)CC2)c(-c2ccc(F)c(F)c2)c(=O)n(-c2cncc(Cl)c2)c1=O [Compound I-397] | < 100 nM | < 10 nM |  |  | 
20 | Cc1cncc(-n2c(=O)c(Oc3ccccc3)c(N3Cc4ccccc4C3)n(CC#N)c2=O)c1 [Compound I-014] |  | 5.1 nM |  |  | 17 nM

Row | Structure (SMILES) | EC50 (SARS-CoV-2; [2]) | IC50 [1] | EC50 (SARS-CoV-2; [3]) | EC50 (SARS-CoV-2; [4]) | EC50 (SARS-CoV-2; [5])
21 | CC(C)(O)Cc1c(-c2ccc(F)c(Cl)c2)c(=O)n(-c2cncc(Cl)c2)c(=O)n1CC#N [Compound I-308] | < 100 nM | < 10 nM |  |  | 
22 | Cc1cncc(-n2c(=O)c(Cc3cc(F)c(F)c(F)c3)c(N3CC[C@@H](C(N)=O)C3)n(CC#N)c2=O)c1 [Compound I-096] |  | < 10 nM | < 100 nM |  | 
23 | N#CCn1c(N2CCC(C(F)F)CC2)c(-c2ccc(F)c(C#N)c2)c(=O)n(-c2cncc(Cl)c2)c1=O [Compound I-398] | < 100 nM | < 10 nM |  |  | 
24 | N#CCn1c(N2CCC(F)(F)C2)c(-c2ccc(F)c(Cl)c2)c(=O)n(-c2cncc(Cl)c2)c1=O [Compound I-148] |  | < 10 nM | < 100 nM |  | 
25 | CC(C)N1CCN(c2c(-c3ccc(F)c(Cl)c3)c(=O)n(-c3cncc(Cl)c3)c(=O)n2CC#N)CC1=O [Compound I-223] | < 100 nM | < 10 nM |  |  | 
26 | N#CCn1c(N2CC3(CCOC3)C2)c(Cc2cc(F)c(F)c(F)c2)c(=O)n(-c2cnc3ccccn23)c1=O [Compound I-037] |  | 10 to 100 nM |  | 100 to 1000 nM | 
27 | Cc1cncc(-n2c(=O)c(Cc3cc(F)c(F)c(F)c3)c(N3CC4(C3)CC(F)(F)C4)n(CC#N)c2=O)c1 [Compound I-105] |  | < 10 nM | < 100 nM |  | 
28 | N#CCn1c(N2CC(O)(c3ncccn3)C2)c(-c2ccc(F)c(Cl)c2)c(=O)n(-c2cncc(Cl)c2)c1=O [Compound I-232] |  | 0.86 nM |  |  | 6.46 nM
29 | N#CCn1c(N2CC(OC(F)F)C2)c(-c2ccc(F)c(Cl)c2)c(=O)n(-c2cncc(C(F)(F)F)n2)c1=O [Compound I-335] | < 100 nM | < 10 nM |  |  | 
30 | N#CCn1c(CCC2(O)CCC2)c(-c2ccc(F)c(C(F)F)c2)c(=O)n(-c2cncc(C#N)c2)c1=O [Compound I-424] | < 100 nM | < 10 nM |  |  | 
31 | Cc1cncc(-n2c(=O)c(Cc3cc(F)c(F)c(F)c3)c(N3C[C@H]4CN(C)C[C@H]4C3)n(CC#N)c2=O)c1 [Compound I-117] |  | < 10 nM | < 100 nM |  | 
32 | Cc1cncc(-n2c(=O)c(Cc3cc(F)c(F)c(F)c3)c(N3CCC(C)(O)CC3)n(CC#N)c2=O)c1 [Compound I-109] |  | < 10 nM | < 100 nM |  | 
33 | C[C@@H](C#N)n1c(N2CC[C@](O)(C(F)F)C2)c(-c2ccc(F)c(F)c2)c(=O)n(-c2cncc(Cl)c2)c1=O (single isomer, unassigned) [Compound I-434] | < 100 nM | < 10 nM |  |  | 
34 | Cc1cc(-n2c(=O)c(-c3cc(F)c(F)c(Cl)c3)c(N3CCC(C(F)(F)F)CC3)n(CC#N)c2=O)cc(=O)[nH]1 [Compound I-034] |  | 10 to 100 nM |  | < 100 nM | 
35 | C#CCn1c(CC(C)(C)F)c(-c2ccc(F)c(Cl)c2)c(=O)n(-c2cncc(Cl)c2)c1=O [Compound I-440] | < 100 nM | < 10 nM |  |  | 
36 | N#CCn1c(N2CC3(CCOC3)C2)c(-c2cc(Cl)cc(C#N)c2)c(=O)n(-c2cncc(Cl)c2)c1=O [Compound I-179] |  | < 10 nM | < 100 nM |  | 
37 | Cc1cncc(-n2c(=O)c(-c3ccc(F)c(Cl)c3)c(N3CC(O)(c4ncccn4)C3)n(CC#N)c2=O)n1 [Compound I-337] | < 100 nM | < 10 nM |  |  | 
38 | N#CCn1c(N2CCOC2=O)c(-c2ccc(F)c(Cl)c2)c(=O)n(-c2cncc(Cl)c2)c1=O [Compound I-243] | 100 to 1000 nM | > 100 nM |  |  | 
39 | Cc1ccc(-c2c(Cc3cc(F)c(F)c(F)c3)c(=O)n(-c3cncc(Cl)c3)c(=O)n2CC#N)cc1C [Compound I-058] |  | < 10 nM | < 100 nM |  | 
40 | N#CCn1c(N2CC(C(F)F)C2)c(-c2ccc(F)c(Cl)c2)c(=O)n(-c2cncc(C#N)c2)c1=O [Compound I-312] | < 100 nM | < 10 nM |  |  | 
